The target of experiment [1] is CK1δ (Homo sapiens, UniProt P48730). The experiment can be described thus: CK1δ kinase assay (Caliper LabChip electrophoretic separation of fluoresceinated peptide substrate and product). The note with it: 200 pM CK1δ, 50 μM ATP, 1.5 μM peptide, 22 hours at room temperature. It is filed as biochemical. Put shortly: (§1)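 Reactions ran 22 hours at room temperature and were stopped with EDTA. Phosphorylated product and unphosphorylated substrate were then separated electrophoretically. Compounds were tested at eleven concentrations, and IC50 values came from non-linear regression.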
CK1δ, sequence (P48730 whole entry): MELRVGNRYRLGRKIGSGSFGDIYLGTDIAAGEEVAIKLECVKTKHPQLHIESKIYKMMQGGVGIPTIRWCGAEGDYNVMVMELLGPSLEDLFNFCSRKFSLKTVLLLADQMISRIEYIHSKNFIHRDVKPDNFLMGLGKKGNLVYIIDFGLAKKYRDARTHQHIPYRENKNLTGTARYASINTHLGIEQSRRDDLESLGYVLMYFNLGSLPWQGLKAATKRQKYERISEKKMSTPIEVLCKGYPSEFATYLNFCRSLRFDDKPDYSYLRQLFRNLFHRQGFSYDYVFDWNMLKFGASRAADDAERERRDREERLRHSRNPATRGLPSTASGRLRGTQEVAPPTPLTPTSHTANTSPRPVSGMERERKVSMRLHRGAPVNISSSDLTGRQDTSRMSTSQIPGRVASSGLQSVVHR

Experiment [2] has as its target CK1ε (Homo sapiens, UniProt P49674). The experiment can be described thus: CK1ε kinase assay (Caliper LabChip electrophoretic separation of fluoresceinated peptide substrate and product). The class given is biochemical. The note with it: 200 pM CK1ε, 50 μM ATP, 1.5 μM peptide, 22 hours at room temperature. The method, boiled down:
as §1

Where two headings read alike, the source gives them in different places.

CK1ε, sequence (P49674 whole entry): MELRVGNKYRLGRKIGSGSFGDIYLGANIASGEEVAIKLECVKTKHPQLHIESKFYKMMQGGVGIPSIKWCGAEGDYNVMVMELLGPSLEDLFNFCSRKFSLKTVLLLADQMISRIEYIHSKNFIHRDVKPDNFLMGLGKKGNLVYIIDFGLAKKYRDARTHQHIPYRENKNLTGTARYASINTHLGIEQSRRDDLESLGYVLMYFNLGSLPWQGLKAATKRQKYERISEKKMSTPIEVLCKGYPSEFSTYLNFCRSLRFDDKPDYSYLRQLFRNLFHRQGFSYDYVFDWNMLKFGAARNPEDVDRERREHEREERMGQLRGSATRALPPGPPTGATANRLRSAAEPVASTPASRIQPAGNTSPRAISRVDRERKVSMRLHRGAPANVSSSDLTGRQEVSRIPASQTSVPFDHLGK

As for `CC1(C)CC(NC(=O)N2CCn3nc(-c4ccc(F)c(Cl)c4)c(C(N)=O)c3C2)C1` [Compound 285, 2-(3-Chloro-4-fluorophenyl)-N^5-(3,3-dimethylcyclobutyl)-6,7-dihydropyrazolo[1,5-a]pyrazine-3,5(4H)-dicarboxamide], the IC50 in experiment [1] (read-out: CK1δ IC50 range) and in experiment [2] (read-out: CK1ε IC50 range) was 0.01 to 10 nM in each case.

Turning to `CC(C)(C)NC(=O)N1CCn2nc(-c3ccnc(F)c3)c(C(N)=O)c2C1` [Compound 112, N^5-(tert-Butyl)-2-(2-fluoropyridin-4-yl)-6,7-dihydropyrazolo[1,5-a] pyrazine-3,5(4H)-dicarboxamide], the values for the IC50 in experiment [1] (read-out: CK1δ IC50 range) and in experiment [2] (read-out: CK1ε IC50 range) were 10 to 100 nM and 100 to 2000 nM, respectively.

For `CC(C)(CC#N)NC(=O)N1CCn2nc(-c3ccc(F)c(Cl)c3)c(C(N)=O)c2C1` [Compound 186, 2-(3-Chloro-4-fluorophenyl)-N^5-(1-cyano-2-methylpropan-2-yl)-6,7-dihydropyrazolo [1,5-a]pyrazine-3,5(4H)-dicarboxamide], the IC50 in experiment [1] (read-out: CK1δ IC50 range) and in experiment [2] (read-out: CK1ε IC50 range) was 0.01 to 10 nM in each case.

For the molecule `NC(=O)c1c(-c2cccc(Cl)c2)nn2c1CN(C(=O)NC1(c3cccnc3)CC(F)(F)C1)CC2` [Compound 312, 2-(3-Chlorophenyl)-N^5-(3,3-difluoro-1-(pyridin-3-yl)cyclobutyl)-6,7-dihydropyrazolo[1,5-a]pyrazine-3,5(4H)-dicarboxamide], the IC50 in experiment [1] (read-out: CK1δ IC50 range) and in experiment [2] (read-out: CK1ε IC50 range) was 0.01 to 10 nM each time.

As to `CS(=O)(=O)[C@H]1C[C@@H](NC(=O)N2CCn3nc(-c4cccc(Cl)c4)c(C(N)=O)c3C2)C1` [Compound 273, 2-(3-Chlorophenyl)-N^5-((1s,3s)-3-(methylsulfonyl)cyclobutyl)-6,7-dihydropyrazolo[1,5-a] pyrazine-3,5(4H)-dicarboxamide], the IC50 in experiment [1] (read-out: CK1δ IC50 range) and in experiment [2] (read-out: CK1ε IC50 range) was 0.01 to 10 nM in each case.

For `NC(=O)c1c(-c2cccc(Cl)c2)nn2c1CN(C(=O)NC1CC3(C1)CC3(F)F)CC2` (single isomer, unassigned) [Compound 323, 2-(3-Chlorophenyl)-N^5-(1,1-difluorospiro[2.3]hexan-5-yl)-6,7-dihydropyrazolo[1,5-a]pyrazine-3,5(4H)-dicarboxamide], the IC50 in experiment [1] (read-out: CK1δ IC50 range) and in experiment [2] (read-out: CK1ε IC50 range) was 0.01 to 10 nM throughout.

As for `CC1CC(NC(=O)N2CCn3nc(-c4cccc(Cl)c4)c(C(N)=O)c3C2)C1` (single isomer, unassigned) [Compound 250, 2-(3-Chlorophenyl)-N^5-(3-methylcyclobutyl)-6,7-dihydropyrazolo[1,5-a]pyrazine-3,5(4H)-dicarboxamide], the IC50 in experiment [1] (read-out: CK1δ IC50 range) and in experiment [2] (read-out: CK1ε IC50 range) was 0.01 to 10 nM throughout.

For `CC1CN(C(=O)NC(C)(C)C)Cc2c(C(N)=O)c(-c3cccc(Cl)c3)nn21` (stereo not shown) [A8], the IC50 in experiment [1] (read-out: CK1δ IC50 range) and in experiment [2] (read-out: CK1ε IC50 range) was 0.01 to 10 nM throughout.

Regarding `N#CCC1(NC(=O)N2CCn3nc(-c4ccc(Cl)c(Cl)c4)c(C(N)=O)c3C2)CCC1` [Compound 222, N^5-(1-(Cyanomethyl)cyclobutyl)-2-(3,4-dichlorophenyl)-6,7-dihydropyrazolo[1,5-a] pyrazine-3,5(4H)-dicarboxamide], the IC50 in experiment [1] (read-out: CK1δ IC50 range) and in experiment [2] (read-out: CK1ε IC50 range) was 0.01 to 10 nM throughout.

`NC(=O)c1c(-c2ccc(F)c(Cl)c2)nn2c1CN(C(=O)NC13CCC(c4ccccc4)(CC1)CC3)CC2` [Compound A53, 2-(3-Chloro-4-fluorophenyl)-N^5-(4-phenylbicyclo[2.2.2]octan-1-yl)-6,7-dihydropyrazolo[1,5-a]pyrazine-3,5(4H)-dicarboxamide]: the IC50 in experiment [1] (read-out: CK1δ IC50 range) and in experiment [2] (read-out: CK1ε IC50 range) was 0.01 to 10 nM in each case.

In the case of `NC(=O)c1c(-c2ccc(F)c(Cl)c2)nn2c1CN(C(=O)NC13CCCC(CCC1)C3)CC2` [Compound A64, N^5-((1r,5r)-Bicyclo[3.3.1]nonan-1-yl)-2-(3-chloro-4-fluorophenyl)-6,7-dihydropyrazolo[1,5-a]pyrazine-3,5(4H)-dicarboxamide], the IC50 in experiment [1] (read-out: CK1δ IC50 range) and in experiment [2] (read-out: CK1ε IC50 range) was 0.01 to 10 nM in each case.

On to `CC(C)(C)NC(=O)N1CCn2nc(-c3cc(F)ccc3F)c(C(N)=O)c2C1` [Compound 151, N^5-(tert-Butyl)-2-(2,5-difluorophenyl)-6,7-dihydropyrazolo[1,5-a] pyrazine-3,5(4H)-dicarboxamide], for which the IC50 is 122 nM in experiment [1] (read-out: CK1δ), 100 to 2000 nM in experiment [1] (read-out: CK1δ IC50 range), 179 nM in experiment [2] (read-out: CK1ε) and 100 to 2000 nM in experiment [2] (read-out: CK1ε IC50 range).

On to `CC(=O)N1CC2(C1)CN(C(=O)NC(C)(C)C)Cc1c(C(N)=O)c(-c3ccc(F)c(Cl)c3)nn12` [Compound A135, 1-Acetyl-N^5′-(tert-butyl)-2′-(3-chloro-4-fluorophenyl)-4′H-spiro[azetidine-3,7′-pyrazolo[1,5-a]pyrazine]-3′,5′(6′H)-dicarboxamide], for which the IC50 in experiment [1] (read-out: CK1δ IC50 range) and in experiment [2] (read-out: CK1ε IC50 range) was 0.01 to 10 nM in each case.

As to `CC(C)(CO)NC(=O)N1CCn2nc(-c3cccc(Cl)c3)c(C(N)=O)c2C1` [Compound A46, 2-(3-Chlorophenyl)-N^5-(1-hydroxy-2-methylpropan-2-yl)-6,7-dihydropyrazolo[1,5-a] pyrazine-3,5(4H)-dicarboxamide], the IC50 in experiment [1] (read-out: CK1δ IC50 range) and in experiment [2] (read-out: CK1ε IC50 range) was 0.01 to 10 nM in each case.

In the case of `CS[C@H]1C[C@@H](NC(=O)N2CCn3nc(-c4ccc(F)c(Cl)c4)c(C(N)=O)c3C2)C1` [Compound 269, 2-(3-Chloro-4-fluorophenyl)-N^5-((1s,3s)-3-(methylthio)cyclobutyl)-6,7-dihydropyrazolo[1,5-a]pyrazine-3,5(4H)-dicarboxamide], the IC50 in experiment [1] (read-out: CK1δ IC50 range) and in experiment [2] (read-out: CK1ε IC50 range) was 0.01 to 10 nM throughout.

As for `CC(C)(C)NC(=O)N1CCn2nc(-c3ccc4scnc4c3)c(C(N)=O)c2C1` [Compound 149, 2-(Benzo[d]thiazol-5-yl)-N^5-(tert-butyl)-6,7-dihydropyrazolo[1,5-a] pyrazine-3,5(4H)-dicarboxamide], the IC50 in experiment [1] (read-out: CK1δ IC50 range) was in the range of 10 to 100 nM; in experiment [2] (read-out: CK1ε IC50 range), 100 to 2000 nM.

As to `N#Cc1ccc([C@H]2C[C@@H](NC(=O)N3CCn4nc(-c5cccc(Cl)c5)c(C(N)=O)c4C3)C2)cc1` [Compound 284, 2-(3-Chlorophenyl)-N^5-((1s,3s)-3-(4-cyanophenyl)cyclobutyl)-6,7-dihydropyrazolo[1,5-a] pyrazine-3,5(4H)-dicarboxamide], the IC50 in experiment [1] (read-out: CK1δ IC50 range) and in experiment [2] (read-out: CK1ε IC50 range) was 0.01 to 10 nM in each case.

Turning to `CC(C)(C)NC(=O)N1CCn2nc(-c3cccc(F)c3)c(C(N)=O)c2C1` [Compound 4, N^5-(tert-Butyl)-2-(3-fluorophenyl)-6,7-dihydropyrazolo[1,5-a]pyrazine-3,5(4H)-dicarboxamide], the IC50 is 10.9 nM in experiment [1] (read-out: CK1δ), 10 to 100 nM in experiment [1] (read-out: CK1δ IC50 range), 38.1 nM in experiment [2] (read-out: CK1ε) and 10 to 100 nM in experiment [2] (read-out: CK1ε IC50 range).

On to `CC(C)(C)NC(=O)N1Cc2c(C(N)=O)c(-c3ccc(F)c(Cl)c3)nn2C(C(=O)NC2CC2)C1` (stereo not shown) [Compound A23, N^5-(tert-Butyl)-2-(3-chloro-4-fluorophenyl)-N^7-cyclopropyl-6,7-dihydropyrazolo[1,5-a]pyrazine-3,5,7(4H)-tricarboxamide], for which the figures for the IC50 in experiment [1] (read-out: CK1δ IC50 range) and in experiment [2] (read-out: CK1ε IC50 range) were 100 to 2000 nM and 10 to 100 nM, respectively.

For `N#Cc1ccc([C@H]2C[C@@H](NC(=O)N3CCn4nc(-c5ccc(Cl)c(Cl)c5)c(C(N)=O)c4C3)C2)cc1` [Compound 283, N^5-((1s,3s)-3-(4-Cyanophenyl)cyclobutyl)-2-(3,4-dichlorophenyl)-6,7-dihydropyrazolo[1,5-a]pyrazine-3,5(4H)-dicarboxamide], the IC50 in experiment [1] (read-out: CK1δ IC50 range) and in experiment [2] (read-out: CK1ε IC50 range) was 0.01 to 10 nM each time.

With `CC(C)(C)NC(=O)N1CCn2nc(-c3cccc(C#N)c3)c(C(N)=O)c2C1` [Compound 114, N^5-(tert-Butyl)-2-(3-cyanophenyl)-6,7-dihydropyrazolo[1,5-a] pyrazine-3,5(4H)-dicarboxamide], the IC50 in experiment [1] (read-out: CK1δ) was 12.5 nM; in experiment [1] (read-out: CK1δ IC50 range), 10 to 100 nM; in experiment [2] (read-out: CK1ε) it was 43 nM; in experiment [2] (read-out: CK1ε IC50 range), 10 to 100 nM.

As to `CC1(NC(=O)N2CCn3nc(-c4cccc(Cl)c4)c(C(N)=O)c3C2)CC2(C1)CC2(F)F` (single isomer, unassigned) [Compound 330, 2-(3-Chlorophenyl)-N^5-(1,1-difluoro-5-methylspiro[2.3]hexan-5-yl)-6,7-dihydropyrazolo[1,5-a]pyrazine-3,5(4H)-dicarboxamide], the IC50 in experiment [1] (read-out: CK1δ IC50 range) and in experiment [2] (read-out: CK1ε IC50 range) was 0.01 to 10 nM in each case.

Regarding `CC1Cn2nc(-c3ccc(F)c(Cl)c3)c(C(N)=O)c2CN1C(=O)NC(C)(C)C` (single isomer, unassigned) [Compound 341, N^5-(tert-Butyl)-2-(3-chloro-4-fluorophenyl)-6-methyl-6,7-dihydropyrazolo[1,5-a]pyrazine-3,5(4H)-dicarboxamide], the IC50 in experiment [1] (read-out: CK1δ IC50 range) lay within 10 to 100 nM; in experiment [2] (read-out: CK1ε IC50 range), 0.01 to 10 nM.

For the molecule `N#CC1(NC(=O)N2CCn3nc(-c4ccc(F)c(Cl)c4)c(C(N)=O)c3C2)CCOC1` (stereo not shown) [Compound 334, 2-(3-Chloro-4-fluorophenyl)-N^5-(3-cyanotetrahydrofuran-3-yl)-6,7-dihydropyrazolo[1,5-a]pyrazine-3,5(4H)-dicarboxamide], the IC50 in experiment [1] (read-out: CK1δ IC50 range) and in experiment [2] (read-out: CK1ε IC50 range) was 0.01 to 10 nM in each case.

Take `NC(=O)c1c(-c2ccc(F)c(Cl)c2)nn2c1CN(C(=O)NC1CC(F)(F)C1)CC2C(F)(F)F` (single isomer, unassigned) [Compound A125, 2-(3-Chloro-4-fluorophenyl)-N^5-(3,3-difluorocyclobutyl)-7-(trifluoromethyl)-6,7-dihydropyrazolo[1,5-a]pyrazine-3,5(4H)-dicarboxamide]: the IC50 in experiment [1] (read-out: CK1δ IC50 range) and in experiment [2] (read-out: CK1ε IC50 range) was 10 to 100 nM each time.

As to `CC(C)(C)NC(=O)N1Cc2c(C(N)=O)c(-c3ccc(Cl)c(Cl)c3)nn2C(C(C)(C)O)C1` (stereo not shown) [Compound A37, N^5-(tert-Butyl)-2-(3,4-dichlorophenyl)-7-(2-hydroxypropan-2-yl)-6,7-dihydropyrazolo[1,5-a]pyrazine-3,5(4H)-dicarboxamide], the IC50 in experiment [1] (read-out: CK1δ IC50 range) was 10 to 100 nM; in experiment [2] (read-out: CK1ε IC50 range), 0.01 to 10 nM.

For the origin of these results see patent US9273058B2 (BRISTOL-MYERS SQUIBB COMPANY, priority 2013, dated 2016).
